Bounds are passed on as bounds.

AC50, IC50 and GI50 data for 20 molecules are collected here from patent US20260285853A1, “COMPOUNDS AND METHODS FOR MODULATING SPLICING” (REMIX THERAPEUTICS INC., priority 2023, published 2026).

What all share (assay type): cell-based
The subject of test [1] is HTT mRNA. Briefly: Splicing RT-qPCR assay (THP), Table 2A. Conditions: Table 2A, THP; for AC50: HTT alternative junction (AJ) mRNA, read-out: HTT AJ (AC50, increase in alternative junction mRNA); for IC50: HTT canonical junction (CJ) mRNA, read-out: HTT CJ (IC50, decrease in canonical junction mRNA). A general note: In qPCR the cycle at which signal appears reflects the starting amount.

Test [2] has as its system MYB mRNA. Briefly: Splicing RT-qPCR assay (THP), Table 2A. Conditions: Table 2A, THP; for AC50: MYB alternative junction (AJ) mRNA, read-out: MYB AJ (AC50, increase in alternative junction mRNA); for IC50: MYB canonical junction (CJ) mRNA, read-out: MYB CJ (IC50, decrease in canonical junction mRNA).
Test [3] relates to HTT mRNA. Put plainly: Gene panel canonical junction qPCR assay, decrease in CJ mRNA, Table 3. Conditions: decrease in CJ mRNA levels, canonical junction qPCR, gene panel. The method in brief: (§1)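 Cells: A673 or K562; 24 h compound exposure, 37 °C, 5% CO2; 11-pt 3-fold series from 10 uM final; DMSO ≤0.25%. Lysate → cDNA → qPCR with junction-spanning primers/probe for CJ transcript. ΔCt vs housekeeper, ΔΔCt vs DMSO, 2^(−ΔΔCt), % response, 4PL → IC50.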

Test [4] has as its system MYB mRNA. Described as above. The conditions noted are these: decrease in CJ mRNA levels, canonical junction qPCR, gene panel. In a few lines:
as §1

Test [5] concerns SH-SY5Y (human neuroblastoma) cells. Put plainly: Cell viability, Cell Titer Glo 2.0 assay. The conditions noted are these: read-out: Viability SHSY5Y.3 GI50. The method in brief: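 CellTiter-Glo 2.0 luminescence read-out after 72 h compound exposure (37 °C, 5% CO2); medium-only wells as blank. DMSO 0.1% final.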
(ATP-based viability assays read luminescence as a measure of living cells.)

In the case of `Cc1cn2cc(NC(=O)c3ccc(N4CCCC(N)C4)c4cn(C)nc34)nc2c(CNS(C)(=O)=O)n1` (centres unmarked) [Compound 866], the AC50 with HTT mRNA [1] and in the test on MYB mRNA [2] was greater than 10 µM throughout. Besides, the IC50 in the test on HTT mRNA [1], in the test with MYB mRNA [2], in the test with HTT mRNA [3] and with MYB mRNA [4] was greater than 10 µM throughout. Further, in test [5], the GI50 is greater than 10 µM.

With `Cn1cc2cc(NC(=O)c3ccc(N4CCC(NC5CC5)CC4)c4cn(C)nc34)c(O)c(CNS(C)(=O)=O)c2n1` [Compound 867], the AC50 in the test with HTT mRNA [1] and with MYB mRNA [2] was greater than 10 µM throughout. The IC50 with HTT mRNA [1], with MYB mRNA [2], in the test on HTT mRNA [3] and in the test with MYB mRNA [4] was greater than 10 µM in each case. For the same molecule, the GI50 in test [5] is greater than 10 µM.

As for `CC(c1cc(NC(=O)c2ccc(N3CCC(NC4CC4)CC3)c3cn(C)nc23)cc2cn(C)nc12)S(=O)(=O)N(C)C` (centres unmarked) [Compound 868], the AC50 with HTT mRNA [1] and with MYB mRNA [2] was greater than 10 µM throughout. Also, the IC50 in the test on HTT mRNA [1], with MYB mRNA [2], in the test on HTT mRNA [3] and in the test with MYB mRNA [4] was greater than 10 µM throughout. In addition, the GI50 in test [5] fell in the range of 1 to 10 µM.

`Cc1c2cc(NC(=O)c3ccc(N4CCC(NC5CC5)CC4)c4cn(C)nc34)cc(CNS(C)(=O)=O)c2nn1C` [Compound 869]: the AC50 in the test on HTT mRNA [1] and with MYB mRNA [2] was greater than 10 µM in each case. The IC50 in the test with HTT mRNA [1], in the test on MYB mRNA [2], in the test on HTT mRNA [3] and with MYB mRNA [4] was greater than 10 µM each time. The GI50 in test [5] was greater than 10 µM.

As for `Cc1cn2nc(NC(=O)c3ccc(N4CCC(NC5CC5)CC4)c4cn(C)nc34)cc(CN)c2n1` [Compound 870], the AC50 in the test on HTT mRNA [1] and in the test with MYB mRNA [2] was greater than 10 µM throughout. Moreover, the IC50 in the test on HTT mRNA [1], in the test with MYB mRNA [2], with HTT mRNA [3] and in the test with MYB mRNA [4] was greater than 10 µM in each case. The GI50 in test [5] fell in the range of 0.1 to 1 µM.

On to `Cn1cc2cc(NC(=O)c3ccc(N4CCC(NC5CC5)CC4)c4cn(C)nc34)cc(CNC(=N)N)c2n1` [Compound 871], for which the figures for the AC50 with HTT mRNA [1] and with MYB mRNA [2] were greater than 10 µM and 1 to 10 µM, respectively. For the same molecule, the IC50 with HTT mRNA [1] is greater than 10 µM; in the test on MYB mRNA [2] it was 1 to 10 µM; with HTT mRNA [3], greater than 10 µM; with MYB mRNA [4], 1 to 10 µM. In test [5], the GI50 is greater than 10 µM.

Turning to `CCNC1CCN(c2ccc(C(=O)Nc3cn4cc(C)nc(CC(=O)NC)c4n3)c3nn(C)cc23)CC1` [Compound 872, 4-[4-(ethylamino)-1-piperidyl]-2-methyl-N-[6-methyl-8-[2-(methylamino)-2-oxo-ethyl]imidazo[1,2-a]pyrazin-2-yl]indazole-7-carboxamide], the AC50 in the test with HTT mRNA [1] and with MYB mRNA [2] was greater than 10 µM in each case. For the same molecule, the IC50 in the test on HTT mRNA [1], with MYB mRNA [2], in the test on HTT mRNA [3] and in the test with MYB mRNA [4] was greater than 10 µM each time. Moreover, the GI50 in test [5] was greater than 10 µM.

For `CCNC1CCN(c2ccc(C(=O)Nc3cc(CC(N)=O)c4nn(C)cc4c3)c3nn(C)cc23)CC1` [Compound 873, N-[7-(2-amino-2-oxo-ethyl)-2-methyl-indazol-5-yl]-4-[4-(ethylamino)-1-piperidyl]-2-methyl-indazole-7-carboxamide], the AC50 in the test with HTT mRNA [1] and with MYB mRNA [2] was greater than 10 µM each time. In addition, the IC50 with HTT mRNA [1], with MYB mRNA [2], in the test on HTT mRNA [3] and in the test with MYB mRNA [4] was greater than 10 µM each time. Besides, the GI50 in test [5] is greater than 10 µM.

In the case of `CCNC1CCN(c2ccc(C(=O)Nc3cc(CS(=O)(=O)N(C)C)c4nn(C)cc4c3)c3nn(C)cc23)CC1` [Compound 874], the AC50 in the test on HTT mRNA [1] and with MYB mRNA [2] was greater than 10 µM each time. Moreover, the IC50 in the test with HTT mRNA [1], with MYB mRNA [2], in the test with HTT mRNA [3] and in the test on MYB mRNA [4] was greater than 10 µM each time. Moreover, in test [5], the GI50 was greater than 10 µM.

Turning to `CCNC1CCN(c2ccc(C(=O)Nc3cc(CCC(N)=O)c4nn(C)cc4c3)c3nn(C)cc23)CC1` [Compound 875], the AC50 in the test with HTT mRNA [1] and in the test with MYB mRNA [2] was greater than 10 µM in each case. The IC50 in the test with HTT mRNA [1], in the test on MYB mRNA [2], with HTT mRNA [3] and in the test on MYB mRNA [4] was greater than 10 µM throughout. Also, the GI50 in test [5] is greater than 10 µM.

In the case of `CCNC1CCN(c2ccc(C(=O)Nc3cc(CCC(=O)NC)c4nn(C)cc4c3)c3nn(C)cc23)CC1` [Compound 876], the AC50 in the test on HTT mRNA [1] and in the test on MYB mRNA [2] was 1 to 10 µM each time. Moreover, the IC50 with HTT mRNA [1], in the test with MYB mRNA [2], in the test on HTT mRNA [3] and in the test with MYB mRNA [4] was 1 to 10 µM in each case. Moreover, the GI50 in test [5] was in the range of 1 to 10 µM.

In the case of `CCNC1CCN(c2ccc(C(=O)Nc3cc(CCC(=O)N(C)C)c4nn(C)cc4c3)c3nn(C)cc23)CC1` [Compound 877], the AC50 with HTT mRNA [1] and with MYB mRNA [2] was greater than 10 µM throughout. For the same molecule, the IC50 in the test on HTT mRNA [1], with MYB mRNA [2], with HTT mRNA [3] and in the test on MYB mRNA [4] was greater than 10 µM in each case. In test [5], the GI50 was greater than 10 µM.

Turning to `CCNC1CCN(c2ccc(C(=O)Nc3cc(CCc4nnc[nH]4)c4nn(C)cc4c3)c3nn(C)cc23)CC1` [Compound 878], the AC50 in the test with HTT mRNA [1] and in the test with MYB mRNA [2] was greater than 10 µM throughout. For the same molecule, the IC50 with HTT mRNA [1], in the test on MYB mRNA [2], in the test on HTT mRNA [3] and in the test on MYB mRNA [4] was greater than 10 µM each time. For the same molecule, in test [5], the GI50 is greater than 10 µM.

Turning to `Cn1cc2cc(NC(=O)c3ccc(N4CCC(NC5CC5)CC4)c4cn(C)nc34)cc(CCO)c2n1` [Compound 879], the AC50 with HTT mRNA [1] was greater than 10 µM; with MYB mRNA [2] it was 1 to 10 µM. In addition, the IC50 in the test on HTT mRNA [1] was greater than 10 µM; in the test with MYB mRNA [2] it was 1 to 10 µM; with HTT mRNA [3], greater than 10 µM; with MYB mRNA [4] it was 1 to 10 µM. In addition, the GI50 in test [5] is 1 to 10 µM.

Take `Cn1cc2cc(NC(=O)c3ccc(N4CCC(NC5CC5)CC4)c4cn(C)nc34)cc(CNc3ncco3)c2n1` [Compound 880]: the AC50 was greater than 10 µM in the test with HTT mRNA [1] and 1 to 10 µM with MYB mRNA [2]. Further, the IC50 was greater than 10 µM in the test on HTT mRNA [1], 1 to 10 µM in the test on MYB mRNA [2], greater than 10 µM with HTT mRNA [3] and 1 to 10 µM in the test with MYB mRNA [4]. Besides, in test [5], the GI50 is 1 to 10 µM.

Take `Cn1cc2cc(NC(=O)c3ccc(N4CCC(NC5CC5)CC4)c4cn(C)nc34)cc(CNc3nccs3)c2n1` [Compound 881]: the AC50 is greater than 10 µM in the test with HTT mRNA [1] and 0.1 to 1 µM in the test on MYB mRNA [2]. The IC50 in the test on HTT mRNA [1], in the test on MYB mRNA [2], in the test with HTT mRNA [3] and with MYB mRNA [4] was 1 to 10 µM throughout. The GI50 in test [5] is 1 to 10 µM.

In the case of `Cn1cc2cc(NC(=O)c3ccc(N4CCC(NC5CC5)CC4)c4cn(C)nc34)cc(CNc3cncs3)c2n1` [Compound 882], the AC50 with HTT mRNA [1] is greater than 10 µM; in the test with MYB mRNA [2], 0.1 to 1 µM. For the same molecule, the IC50 in the test with HTT mRNA [1] is greater than 10 µM; with MYB mRNA [2] it was 0.1 to 1 µM; in the test with HTT mRNA [3], greater than 10 µM; in the test on MYB mRNA [4], 0.1 to 1 µM. For the same molecule, the GI50 in test [5] fell in the range of 1 to 10 µM.

As for `Cn1cc2cc(NC(=O)c3ccc(N4CCC(NC5CC5)CC4)c4cn(C)nc34)cc(CNc3cn[nH]c3)c2n1` [Compound 883], the AC50 is greater than 10 µM in the test on HTT mRNA [1] and 1 to 10 µM in the test on MYB mRNA [2]. For the same molecule, the IC50 in the test on HTT mRNA [1] is greater than 10 µM; in the test with MYB mRNA [2], 1 to 10 µM; with HTT mRNA [3] it was greater than 10 µM; with MYB mRNA [4] it was 1 to 10 µM. Besides, in test [5], the GI50 was greater than 10 µM.

For `CCNC1CCN(c2ccc(C(=O)Nc3cn4cc(C)nc(CNS(C)(=O)=O)c4n3)c3nn(C)cc23)CC1` [Compound 884], the AC50 in the test on HTT mRNA [1] is greater than 10 µM; in the test on MYB mRNA [2], 1 to 10 µM. Besides, the IC50 in the test on HTT mRNA [1] is greater than 10 µM; in the test on MYB mRNA [2], 1 to 10 µM; in the test on HTT mRNA [3], greater than 10 µM; with MYB mRNA [4], 1 to 10 µM. Moreover, the GI50 in test [5] was greater than 10 µM.

As for `Cc1cn2cc(NC(=O)c3ccc(N4CC5CCC(C4)N5)c4cn(C)nc34)nc2c(CNS(C)(=O)=O)n1` [Compound 885, 4-(3,8-diazabicyclo[3.2.1]octan-3-yl)-N-[8-(methanesulfonamidomethyl)-6-methyl-imidazo[1,2-a]pyrazin-2-yl]-2-methyl-indazole-7-carboxamide], the AC50 with HTT mRNA [1] and in the test on MYB mRNA [2] was 1 to 10 µM each time. The IC50 with HTT mRNA [1], with MYB mRNA [2], in the test on HTT mRNA [3] and with MYB mRNA [4] was 1 to 10 µM each time. For the same molecule, the GI50 in test [5] is 1 to 10 µM.

As usually defined, the AC50 is the concentration giving half of the maximal activity seen. One may read the IC50 as the concentration that gives 50% inhibition. Broadly, the GI50 is the concentration giving 50% growth inhibition.
